Results published in patent US6743929B1, “Sulfonylalkanoylamino hydroxyethylamino sulfonamides useful as retroviral protease inhibitors” (G. D. Searle & Co., priority 1992, dated 2004).
Where two headings read alike, the source gives them in different places.

Tests used:
[1] = target: T1, HIV protease (Human immunodeficiency virus type 1 group M subtype B, UniProt P04585); test: HIV protease enzyme assay (fluorogenic substrate 2-aminobenzoyl-Ile-Nle-Phe(p-NO2)-Gln-ArgNH2); assay type: biochemical
T1 construct: HIV protease is diluted in the assay buffer to a final enzyme concentration of 12.3 nanomolar, based on a molecular weight of 10,780
Description: The compounds of the present invention are effective HIV protease inhibitors. Utilizing an enzyme assay as described below, the compounds set forth in the examples herein disclosed inhibited the HIV enzyme. The preferred compounds of the present invention and their calculated IC50 (inhibiting concentration 50%, i.e., the concentration at which the inhibitor compound reduces enzyme activity by 50%) values are sh6wn in Table 16. The enzyme method is described below. The substrate is 2-aminobenzoyl-Ile-Nle-Phe(p-NO2)-Gln-ArgNH2. The positive control is MVT-101 (Miller, M. et al, Science, 246, 1149 (1989)] The assay conditions are as follows:
The above described substrate is dissolved in DMSO, then diluted 10 fold in assay buffer. Final substrate concentration in the assay is 80 μM.
HIV protease is diluted in the assay buffer to a final enzyme concentration of 12.3 nanomolar, based on a molecular weight of 10,780.
The final concentration of DMSO is 14% and the final concentration of glycerol is 18%. The test compound is dissolved in DMSO and diluted in DMSO to 10×the test concentration; 10 μl of the enzyme preparation is added, the materials mixed and then the mixture is incubated at ambient temperature for 15 minutes. The enzyme reaction is initiated by the addition of 40 μl of substrate. The increase in fluorescence is monitored at 4 time points (0, 8, 16 and 24 minutes) at ambient temperature. Each assay is carried out in duplicate wells.

[2] = system: CEM cells; test: CEM cell assay: intrinsic toxicity of test compound in uninfected cells (MTT); assay type: cell-based; conditions: Table 10, CEM cells without virus, 7 days
Description: (§1) The HIV inhibition assay method of acutely infected cells is an automated tetrazolium based calorimetric assay essentially that reported by Pauwles et al, J. Virol. Methods, 20, 309-321 (1988). Assays were performed in 96-well tissue culture plates. CEM cells, a CD4+ cell line, were grown in RPMI-1640 medium (Gibco) supplemented with a 10% fetal calf serum and were then treated with polybrene (2 μg/ml). An 80 μl volume of medium containing 1×10^4 cells was dispensed into each well of the tissue culture plate. To each well was added a 100 μl volume of tesc compound dissolved in tissue culture medium (or medium without test compound as a control) to achieve the desired final concentration and the cells were incubated at 37° C. for 1 hour. A frozen culture of HIV-1 was diluted in culture medium to a concentration of 5×10^4 TCID50 per ml (TCID50=the dose of virus that infects 50% of cells in tissue culture), and a 20 μL volume of the virus sample (containing 1000 TCID50 of virus) was added to wells containing test compound and to wells containing only medium (infected control cells). Several wells received culture medium without virus (uninfected control cells). Likewise, the intrinsic toxicity of the test compound was determined by adding medium without virus to several wells containing test compound. In summary, the tissue culture plates contained the following experiments:
(§2) In experiments 2 and 4 the final concentrations of test compounds were 1, 10, 100 and 500 μg/ml. Either azidothymidine (AZT) or dideoxyinosine (ddI) was included as a positive drug control. […] DMSO was added to all control wells at an appropriate concentration.
(§3) Following the addition of virus, cells were incubated at 37° C. in a humidified, 5% CO2 atmosphere for 7 days. Test compounds could be added on days 0, 2 and 5 if desired. On day 7, post-infection, the cells in each well were resuspended and a 100 μl sample of each cell suspension was removed for assay. A 20 μL volume of a 5 mg/ml solution of 3-(4,5-dimethylthiazol-2-yl)-2,5-diphenyltetrazolium bromide (MTT) was added to each 100 μL cell suspension, and the cells were incubated for 4 hours at […] in a 5% CO2 environment. […] To each sample was added 100 μl of 10% sodium dodecylsulfate in 0.01 N HCl to lyse the cells, and samples were incubated overnight. The absorbance at 590 nm was determined for each sample using a Molecular Devices microplate reader. Absorbance values for each set of wells is compared to assess viral control infection, uninfected control cell response as well as test compound by cytotoxicity and antiviral efficacy.

[3] = system: HIV-1; test: CEM cell assay: HIV inhibition in acutely infected cells (MTT); assay type: cell-based; conditions: Human immunodeficiency virus 1, CCRF-CEM, 168 h
Description: The effectiveness of compounds of the present invention were determined in a CEM cell assay.
as §1, §2, §3

[4] = Table 10, CEM cells infected with HIV-1, 7 days, MTT, read-out: EC50

| SMILES | IC50 [1] [nM] | TD50 (nM) [2] | EC50 [3, 4] [nM] | EC50 [3] [nM] |
| --- | --- | --- | --- | --- |
| CC(C)CCN(C[C@@H](O)[C@H](Cc1ccccc1)NC(=O)[C@H](C)CS(C)(=O)=O)S(=O)(=O)c1ccccc1 (relative stereo) [Example 4, Propanamide, N-[2-Hydroxy-3-[(3-methylbutyl)(phenylsulfonyl)amino]-1-(phenylmethyl)propyl]-2-methyl-3-(methylsulfonyl)-. [1S-[1R*(R*), 2S*]]-] | 3 | >1,000,000 nM | 12 |  |
| COc1ccc(S(=O)(=O)N(CC(C)C)C[C@@H](O)[C@H](Cc2ccccc2)NC(=O)[C@H](C)CS(C)(=O)=O)cc1 (relative stereo) [Example 7, propanamide, N-[2-Hydroxy-3-[(2-methylpropyl)(4-methoxyphenylsulfonyl)amino]-1-(phenylmethyl)propyl]-2-methyl-3-(methylsulfonyl)-,[1S-[1R*(R*),2S*]]-] | 1.9 | >1,000,000 nM | 2 |  |
| CC(C)CN(C[C@@H](O)[C@H](Cc1ccccc1)NC(=O)[C@H](C)CS(C)(=O)=O)S(=O)(=O)c1ccccc1 (relative stereo) [Example 3, Propanamide, N-[2-Hydroxy-3-[(2-methylpropyl)(phenylsulfonyl)amino]-1-(phenylmethyl)propyl]-2-methyl-3-(methylsulfonyl)-, [1S-[1R*(R*),2S*]]-] | 3.2 | 213,000 nM | 10 |  |
| CC(C)CCN(C[C@@H](O)[C@H](Cc1ccccc1)NC(=O)[C@H](C)CS(C)(=O)=O)S(=O)(=O)c1ccc(N)cc1 (relative stereo) [Example 11, Propanamide, N-[2-Hydroxy-3-[(3-methylbutyl)(4-aminophenylsulfonyl)amino]-1-(phenylmethyl)propyl]-2-methyl-3-(methylsulfonyl)-,[1S-[1R*(R*),2S*]]-] | 7.8 | 170,000 nM | 45 |  |
| CCCN(C[C@@H](O)[C@H](Cc1ccccc1)NC(=O)[C@H](C)CS(C)(=O)=O)S(=O)(=O)c1ccccc1 (relative stereo) [Example 5, Propanamide, N-[2-Hydroxy-3-(propyl)(phenylsulfonyl)amino]-1-(phenylmethyl)propyl]-2-methyl-3-(methylsulfonyl)-, [1S-[1R* (R*), 2S*]]-] | 13 | 438,000 nM | 25 |  |
| COc1ccc(S(=O)(=O)N(CC(C)C)C[C@@H](O)[C@H](Cc2ccccc2)NC(=O)[C@H](C)CS(C)(=O)=O)cc1OC (relative stereo) [Example 12, Propanamide, N-[2-Hydroxy-3-[(2-methylpropyl)(3.4-dimethoxyphenylsulfonyl)amino]-1-(phenylmethyl)propyl]-2-methyl-3-(methylsulfonyl)-,[1S-[1R*(R*),2S*]]-] | 38 | 77,000 nM | 87 |  |
| COc1ccc(S(=O)(=O)N(CCC(C)C)C[C@@H](O)[C@H](Cc2ccccc2)NC(=O)[C@H](C)CS(C)(=O)=O)cc1 (relative stereo) [Example 2, Propanamide, N-[2-Hydroxy-3-[(3-methylbutyl)(4-methoxyphenylsulfonyl)aminol-1-(phenylmethyl)propyl]-2-methyl-3-(methylsulfonyl)-[1S-[1R*(R*),2S*]]-] | 3.2 | 90,000 nM | 12 |  |
| CCCCN(C[C@@H](O)[C@H](Cc1ccccc1)NC(=O)[C@H](C)CS(C)(=O)=O)S(=O)(=O)c1ccc(OC)cc1 (relative stereo) [Example 8, Propanamide, N-[2-Hydroxy-3-[(butyl)(4-methoxyphenylsulfonyl)amino]-1-(phenylmethyl)propyl]-2-methyl-3-(methylsulfonyl)-,[1S-[1R*(R*),2S*]]-] | 3.1 | >1,000,000 nM | 9 |  |
| CCCCN(C[C@@H](O)[C@H](Cc1ccccc1)NC(=O)[C@H](C)CS(C)(=O)=O)S(=O)(=O)c1ccccc1 (relative stereo) [Example 6, Propanamide, N-[2-Hydroxy-3-(butyl)(phenylsulfonyl)amino]-1-(phenylmethyl)propyl]-2-methyl-3-(methylsulfonyl)-. [1S-[1R*(R*),2S*]]-] | 8.8 | 133,000 nM | 29 |  |
| CC(=O)Nc1ccc(S(=O)(=O)N(CC(C)C)C[C@@H](O)[C@H](Cc2ccccc2)NC(=O)[C@H](C)CS(C)(=O)=O)cc1 (relative stereo) [Example 10, Propanamide, N-[2-Hydroxy-3-[(2-methylpropyl)(4-acetamido)phenylsulfonyl)amino]-1-(phenylmethyl)propyl]-2-methyl-3-(methylsulfonyl)-,[1S-[1R*(R*),2S*]]-] |  | 860,000 nM |  | 223 |
| CCCN(C[C@@H](O)[C@H](Cc1ccccc1)NC(=O)[C@H](C)CS(C)(=O)=O)S(=O)(=O)c1ccc(OC)cc1 (relative stereo) [Example 9, propanamide, N-[2-Hydroxy-3-[(propyl)(4-methoxyphenylsulfonyl)amino]-1-(phenylmethyl)propyl]-2-methyl-3-(methylsulfonyl)-,[1S-[1R*(R*),2S*]]-] | 4.1 | >1,000,000 nM | 16 |  |
